From patent US20050282755A1, “Compositions having antimicrobial activity and uses thereof” (priority 2004, published 2005)
≈ marks a conversion by molar mass, not a printed value. Starred links: 1 amine or outer side, 2 acyl side, 3 side chain; linkers in the order of their positions; H or OH if unused. Non-standard residues stand in square brackets, D forms with d. Residues, ends and D or L forms follow the SMILES beside them. *: point of attachment. 1Nal = N[C@@H](Cc1cccc2ccccc12)C(=O)O; Ethylenediamine = C(CN[*:2])N[*:1]; Lauroyl = CCCCCCCCCCCC(=O)*; Decanoyl = CCCCCCCCCC(=O)*; Octanoyl = CCCCCCCC(=O)*

Tests used:
Assay type in all cases: cell-based
[1] = test system: Staphylococcus aureus ATCC 29213; experiment: MIC, NCCLS M7-A6 broth microdilution, cation-adjusted Mueller Hinton broth (Table 9, no superscript); conditions: ATCC 29213
Method in brief: (§1)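 MIC, read as the lowest peptide concentration without visible growth compared with peptide-free wells, after overnight incubation at 37° C. Wells held cation-adjusted Mueller Hinton broth and a final inoculum of 5×10^5 to 1×10^6 CFU/mL from log-phase culture.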

[2] = test system: Escherichia coli ATCC 25922; experiment: MIC, NCCLS M7-A6 broth microdilution (Table 9, no superscript); conditions: ATCC 25922
Method in brief: as §1

[3] = test system: Pseudomonas aeruginosa ATCC 27853; experiment: as above; conditions: ATCC 27853
Method in brief: as §1

Salmonella dublin (Lane) = experiment: as above
Method in brief: as §1

[4] = test system: Staphylococcus epidermidis ATCC 12228; experiment: as above; conditions: ATCC 12228
Method in brief: as §1

[5] = test system: Propionibacterium acnes ATCC 6919; experiment: MIC, agar dilution method NCCLS M11-A6, Brucella agar, anaerobic (Table 9, superscript c); conditions: ATCC 6919
Procedure: A bacterial suspension was prepared to allow for a final inoculum on the plate of 1.5×10^8 CFU/milliliter. After the suspension absorbed into the agar surface, the plates were incubated for 48-96 hours at 37° C. in a GasPak anaerobic chamber. The lowest concentration of peptide that contained no colony growth on the agar plate was determined as the MIC. MIC values that utilized this method of MIC determination are indicated in Table 9 with a superscript letter “c.”

Compound	MIC S. aureus [1] [µg/mL]	MIC E. coli [2] [µg/mL]	MIC P. aeruginosa [3] [µg/mL]	MIC S. dublin (Salmonella dublin (Lane)) [µg/mL]	MIC S. epidermidis [4] [µg/mL]	MIC P. acnes [5]
CCCCCCCC(=O)N[C@H](CCCNC(=N)N)C(=O)N[C@H](CO)C(=O)N[C@H](CCCNC(=N)N)C(=O)N[C@H](Cc1c[nH]c2ccccc12)C(=O)N[C@H](CCCNC(=N)N)C(=O)N[C@H](CC(=O)O)C(=O)N[C@@H](C(=O)N[C@H](C)C(=O)N[C@H](CCCNC(=N)N)C(=O)N[C@H](CC(N)=O)C(=O)N[C@H](Cc1ccccc1)C(=O)N[C@H](CCSC)C(=O)N[C@H](CCCNC(=N)N)C(N)=O)C(C)C [Peptide 207, Octyl-rsrwrdvarnfmr-NH2] (Octanoyl-[dR][dS][dR][dW][dR][dD][dV][dA][dR][dN][dF][dM][dR]-NH2)	16 (≈ 8.53 µM)	32 (≈ 17.1 µM)	32 (≈ 17.1 µM)	64 (≈ 34.1 µM)	4 (≈ 2.13 µM)	16c ug/mL
CCCCCCCCCCCC(=O)N[C@@H](CCCNC(=N)N)C(=O)N[C@@H](Cc1c[nH]c2ccccc12)C(=O)N[C@@H](CCCNC(=N)N)C(=O)N[C@@H](C)C(=O)N[C@@H](CC(C)C)C(=O)N[C@@H](C)C(=O)N[C@@H](CCCNC(=N)N)C(N)=O [Peptide 242, Lauryl-RWRALAR-NH2] (Lauroyl-RWRALAR-NH2)	2 (≈ 1.8 µM)	16 (≈ 14.4 µM)	8 (≈ 7.21 µM)	32 (≈ 28.8 µM)	2 (≈ 1.8 µM)	64c ug/mL
CCCCCCCCCCCC(=O)N[C@@H](CCCNC(=N)N)C(=O)N[C@@H](Cc1c[nH]c2ccccc12)C(=O)N[C@@H](CCCNC(=N)N)C(=O)N[C@@H](CC(=O)O)C(=O)N[C@@H](CC(C)C)C(=O)N[C@@H](C)C(=O)N[C@@H](CCCNC(=N)N)C(N)=O [Peptide 241, Lauryl-RWRDLAR-NH2] (Lauroyl-RWRDLAR-NH2)	4 (≈ 3.47 µM)	32 (≈ 27.7 µM)	32 (≈ 27.7 µM)	16 (≈ 13.9 µM)	8 (≈ 6.94 µM)	64c ug/mL
CCCCCCCCCCCC(=O)N[C@H](CCCNC(=N)N)C(=O)N[C@H](CO)C(=O)N[C@H](CCCNC(=N)N)C(=O)N[C@H](Cc1c[nH]c2ccccc12)C(=O)N[C@H](CCCNC(=N)N)C(=O)N[C@H](CC(=O)O)C(=O)N[C@@H](C(=O)N[C@H](C)C(=O)N[C@H](CCCNC(=N)N)C(=O)N[C@H](C)C(=O)N[C@H](Cc1ccccc1)C(=O)N[C@H](CC(C)C)C(=O)N[C@H](CCCNC(=N)N)C(N)=O)C(C)C [Peptide 226, Lauryl-rsrwrdvaraflr-NH2] (Lauroyl-[dR][dS][dR][dW][dR][dD][dV][dA][dR][dA][dF][dL][dR]-NH2)	8 (≈ 4.28 µM)	16 (≈ 8.55 µM)	>64	16 (≈ 8.55 µM)	4 (≈ 2.14 µM)	32c ug/mL
CCCCCCCCCCCC(=O)N[C@@H](CCCNC(=N)N)C(=O)N[C@@H](Cc1c[nH]c2ccccc12)C(=O)N[C@@H](CCCNC(=N)N)C(=O)N[C@@H](CC(=O)O)C(=O)N[C@H](C(=O)N[C@@H](C)C(=O)N[C@@H](CCCNC(=N)N)C(N)=O)C(C)C [Peptide 105, Lauryl-RWRDVAR-NH2] (Lauroyl-RWRDVAR-NH2)	16 (≈ 14 µM)	32 (≈ 28.1 µM)	32 (≈ 28.1 µM)	>32	8 (≈ 7.02 µM)	32c ug/mL
CCCCCCCCCCCC(=O)N[C@H](CCCNC(=N)N)C(=O)N[C@H](Cc1c[nH]c2ccccc12)C(=O)N[C@H](CCCNC(=N)N)C(=O)N[C@H](C)C(=O)N[C@@H](C(=O)N[C@H](C)C(=O)N[C@H](CCCNC(=N)N)C(N)=O)C(C)C [Peptide 246, Lauryl-rwravar-NH2] (Lauroyl-[dR][dW][dR][dA][dV][dA][dR]-NH2)	4 (≈ 3.65 µM)	32 (≈ 29.2 µM)	>64	>64	2 (≈ 1.83 µM)	32c ug/mL
CCCCCCCCCCCC(=O)N[C@H](CCCNC(=N)N)C(=O)N[C@H](CO)C(=O)N[C@H](CCCNC(=N)N)C(=O)N[C@H](Cc1c[nH]c2ccccc12)C(=O)N[C@H](CCCNC(=N)N)C(=O)N[C@H](CC(=O)O)C(=O)N[C@@H](C(=O)N[C@H](C)C(=O)N[C@H](CCCNC(=N)N)C(=O)N[C@H](CC(N)=O)C(=O)N[C@H](Cc1ccccc1)C(=O)N[C@H](CC(C)C)C(=O)N[C@H](CCCNC(=N)N)C(N)=O)C(C)C [Peptide 210, Lauryl-rsrwrdvarnflr-NH2] (Lauroyl-[dR][dS][dR][dW][dR][dD][dV][dA][dR][dN][dF][dL][dR]-NH2)	4 (≈ 2.09 µM)	8 (≈ 4.18 µM)	16 (≈ 8.36 µM)	4 (≈ 2.09 µM)	2 (≈ 1.05 µM)	8c ug/mL
CCCCCCCCCCCC(=O)N[C@@H](CCCNC(=N)N)C(=O)N[C@@H](CO)C(=O)N[C@@H](CCCNC(=N)N)C(=O)N[C@@H](Cc1cccc2ccccc12)C(=O)N[C@@H](CCCNC(=N)N)C(=O)N[C@@H](CC(=O)O)C(=O)N[C@H](C(=O)N[C@@H](C)C(=O)N[C@@H](CCCNC(=N)N)C(=O)N[C@@H](CC(N)=O)C(=O)N[C@@H](Cc1ccccc1)C(=O)N[C@@H](CCSC)C(=O)N[C@@H](CCCNC(=N)N)C(N)=O)C(C)C [Peptide 149, Lauryl-RSRZRDVARNFMR-NH2 Z = 1-naphthylalanine] (Lauroyl-RSR[1Nal]RDVARNFMR-NH2)	16 (≈ 8.24 µM)	64 (≈ 32.9 µM)	>64	32 (≈ 16.5 µM)	4 (≈ 2.06 µM)	32c ug/mL
CCCCCCCC(=O)NCCNC(=O)[C@H](CCCNC(=N)N)NC(=O)[C@H](CC(C)C)NC(=O)[C@H](Cc1ccccc1)NC(=O)[C@H](CC(N)=O)NC(=O)[C@H](CCCNC(=N)N)NC(=O)[C@H](C)NC(=O)[C@@H](NC(=O)[C@H](CC(=O)O)NC(=O)[C@H](CCCNC(=N)N)NC(=O)[C@H](Cc1c[nH]c2ccccc12)NC(=O)[C@H](CCCNC(=N)N)NC(=O)[C@H](CO)NC(=O)[C@@H](N)CCCNC(=N)N)C(C)C [Peptide 169, H2N-RSRWRDVARNFLR-Ethylamidooctanyl] (H-RSRWRDVARNFLR-{Ethylenediamine-Octanoyl}; C-terminus assumed)	4 (≈ 2.1 µM)	2 (≈ 1.05 µM)	4 (≈ 2.1 µM)	8 (≈ 4.21 µM)	1 (≈ 0.526 µM)	64c ug/mL
CCCCCCCCCC(=O)N[C@H](CCCNC(=N)N)C(=O)N[C@H](CO)C(=O)N[C@H](CCCNC(=N)N)C(=O)N[C@H](Cc1c[nH]c2ccccc12)C(=O)N[C@H](CCCNC(=N)N)C(=O)N[C@H](CC(=O)O)C(=O)N[C@@H](C(=O)N[C@H](C)C(=O)N[C@H](CCCNC(=N)N)C(=O)N[C@H](CC(N)=O)C(=O)N[C@H](Cc1ccccc1)C(=O)N[C@H](CCSC)C(=O)N[C@H](CCCNC(=N)N)C(N)=O)C(C)C [Peptide 208, Decanyl-rsrwrdvarnfmr-NH2] (Decanoyl-[dR][dS][dR][dW][dR][dD][dV][dA][dR][dN][dF][dM][dR]-NH2)	4 (≈ 2.1 µM)	>64	>64	8 (≈ 4.2 µM)	>64	2c ug/mL
CCCCCCCCCCCC(=O)N[C@@H](CCCNC(=N)N)C(=O)N[C@@H](Cc1c[nH]c2ccccc12)C(=O)N[C@@H](CCCNC(=N)N)C(=O)N[C@@H](C)C(=O)N[C@H](C(=O)N[C@@H](C)C(=O)N[C@@H](CCCNC(=N)N)C(N)=O)C(C)C [Peptide 243, Lauryl-RWRAVAR-NH2] (Lauroyl-RWRAVAR-NH2)	4 (≈ 3.65 µM)	32 (≈ 29.2 µM)	>64	>64	2 (≈ 1.83 µM)	>64c ug/mL
CCCCCCCCCC(=O)N[C@H](CCCNC(=N)N)C(=O)N[C@H](CO)C(=O)N[C@H](CCCNC(=N)N)C(=O)N[C@H](Cc1c[nH]c2ccccc12)C(=O)N[C@H](CCCNC(=N)N)C(=O)N[C@H](CC(=O)O)C(=O)N[C@@H](C(=O)N[C@H](C)C(=O)N[C@H](CCCNC(=N)N)C(=O)N[C@H](CC(N)=O)C(=O)N[C@H](Cc1ccccc1)C(=O)N[C@H](CC(C)C)C(=O)N[C@H](CCCNC(=N)N)C(N)=O)C(C)C [Peptide 190, Decanyl-rsrwrdvarnflr-NH2] (Decanoyl-[dR][dS][dR][dW][dR][dD][dV][dA][dR][dN][dF][dL][dR]-NH2)	8 (≈ 4.24 µM)	4 (≈ 2.12 µM)	8 (≈ 4.24 µM)	–	2 (≈ 1.06 µM)	4 µg/mL (≈ 2.12 µM)
